Where “and” joins values, the source holds several entries; their conditions need not be identical. Equal values may be shown once. Entries after “also recorded” stand apart in the source; their conditions may differ. Read-outs that look alike come from different tables or passages of the source.
Experiments:
α4β2-nAChRs [1] = biological target: T1, α4β2-nAChRs (Homo sapiens, UniProt P17787+P43681); test: Intact cell competitive radioligand binding assay ([3H]-(±)-epibatidine, SPA), LGIC-CNiFERs
T1 construct: expressed in transfected cells; host or cells: HEKtsA201 cells co-expressing TN-XXL

5HT3A receptors = biological target: T2, 5HT3A receptors (Mus musculus, UniProt P23979); test: FRET functional assay (agonist/antagonist) using LGIC-CNiFERs; format: cell-based; settings: for EC50: * partial agonist, read-out: Agonist EC50 ± SD, 5HT3A; for Functional properties at 5HT3A receptors (agonist / antagonist, type): functional screening and characterization
T2 construct: expressed in transfected cells; host or cells: HEK293 cells co-expressing TN-XXL
T2 sequence (P23979 24-489): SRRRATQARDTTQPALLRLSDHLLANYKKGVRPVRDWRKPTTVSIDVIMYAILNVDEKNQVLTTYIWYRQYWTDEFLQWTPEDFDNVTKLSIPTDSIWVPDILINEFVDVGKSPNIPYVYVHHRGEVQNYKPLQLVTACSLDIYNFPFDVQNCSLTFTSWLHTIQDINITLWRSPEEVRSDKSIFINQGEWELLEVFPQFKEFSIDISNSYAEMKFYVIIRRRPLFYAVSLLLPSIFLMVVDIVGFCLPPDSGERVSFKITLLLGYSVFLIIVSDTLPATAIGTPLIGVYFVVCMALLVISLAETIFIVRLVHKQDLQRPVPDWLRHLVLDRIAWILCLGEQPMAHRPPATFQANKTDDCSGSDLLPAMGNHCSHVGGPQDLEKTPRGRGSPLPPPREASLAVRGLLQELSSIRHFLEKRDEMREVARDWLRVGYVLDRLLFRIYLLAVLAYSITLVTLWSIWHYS

α7-nAChRs = biological target: T3, α7-nAChRs (Homo sapiens, UniProt P36544); test: as above; format: cell-based
T3 construct: expressed in transfected cells; host or cells: HEKtsA201 cells co-expressing TN-XXL

α4β2-nAChRs [2] = biological target: T1, α4β2-nAChRs; test: as above; format: cell-based; settings: for Functional properties at α4β2-nAChRs (agonist / antagonist, type): functional screening and characterization; for EC50: read-out: EC50 ± SD, α4β2
[3] = >10 = did not pass initial screen at 10 μM, read-out: Kd ± SD, α4β2
[4] = >10 = did not pass initial screen
[5] = in presence of 10 μM PNU-120596, * partial agonist, >10 = did not pass initial screen, read-out: Agonist EC50 ± SD, α7

Compound	Kd (α4β2-nAChRs [1]; [3]) [nM]	EC50 (5HT3A receptors; [4]) [nM]	Functional properties at 5HT3A receptors (agonist / antagonist, type) (5HT3A receptors)	Fold increase in α7-nAChR agonist potency over lead compound TTIn-1 (α7-nAChRs) [fold]	EC50 (α7-nAChRs; [5])	Antagonist KA ± SD, α4β2 (α4β2-nAChRs [2]; competitive antagonist (^C), >10 = did not pass initial screen, vs (±)-epibatidine)	Functional properties at α4β2-nAChRs (agonist / antagonist, type) (α4β2-nAChRs [2])	Initial screening for binding to α4β2-nAChRs (α4β2-nAChRs [1]; 10 μM, more than 50% radioligand displacement)	5HT3A agonistic properties relative to α7-nAChR agonistic effect (5HT3A receptors)	EC50 (α4β2-nAChRs [2]; [4]) [nM]	Kd (α4β2-nAChRs [2]; competitive antagonist (^C), >10 = did not pass initial screen, vs (±)-epibatidine, read-out: Antagonist KA ± SD, α4β2) [nM]	Kd (α4β2-nAChRs [1]) [nM]	Kd (5HT3A receptors; Antagonist KA ± SD, 5HT3A, competitive antagonist (^C), >10 = did not pass initial screen, vs 5-HT) [nM]	EC50 (α7-nAChRs; Agonist EC50 ± SD, α7) [nM]	Kd (α4β2-nAChRs [2]; Antagonist KA ± SD, α4β2, competitive antagonist (^C), >10 = did not pass initial screen, vs (±)-epibatidine) [nM]
Oc1ccc(-c2cn(C3CN4CCC3CC4)nn2)cc1 (stereo not shown) [QND8, 3-(4-hydroxyphenyl-1,2,3-triazol-1-yl) quinuclidine]	> 10000	900 ± 90	5HT3A receptor agonist properties	20	40 nM and 37 nM	6.2 ± 1.7^C μM	competitive antagonism	–	–	–	–	–	–	–	–
c1cc2cc(-c3cn(C4CN5CCC4CC5)nn3)ccc2[nH]1 (stereo not shown) [IND8, 5-((Quinuclid-3-yl)-1H-1,2,3-triazol-4-yl)-1H-indole]	750	210	agonistic properties; also recorded: partial agonist	20	30 nM and 28 nM	–	did not elicit agonist or antagonist properties	binds to α4β2-nAChRs	seven fold lower	> 10000	>10000	–	–	–	–
O=C(N[C@H]1CN2CCC1CC2)c1ccc(Cl)cc1 [PNU-282987, reference compound]	–	–	–	–	–	–	–	–	–	> 10000	–	> 10000	1200	110 ± 10	> 10000

From patent US20180244653A1, “SELECTIVE ALPHA-7 NICOTINIC RECEPTOR AGONISTS AND METHODS FOR MAKING AND USING THEM” (THE REGENTS OF THE UNIVERSITY OF CALIFORNIA, priority 2015, published 2018)
